# Data as given in ChEMBL document CHEMBL3758169, “4-Aminoindazolyl-dihydrofuro[3,4-d]pyrimidines as non-covalent inhibitors of mutant epidermal growth factor receptor tyrosine kinase” (Bioorg Med Chem Lett, 2016).
# Assays:
# [1] = target: Serine/threonine-protein kinase MARK1 (Homo sapiens) (UniProt Q9P0L2); test: Inhibition of MARK1 (unknown origin) at 100 nM
# [2] = test system: Mast/stem cell growth factor receptor Kit (Homo sapiens), P10721 [T670I]; test: Inhibition of KIT T670I mutant (unknown origin) at 100 nM
# [3] = target: Serine/threonine-protein kinase B-raf (Homo sapiens) (UniProt P15056); test: Inhibition of B-Raf (unknown origin) at 100 nM
# [4] = target: Focal adhesion kinase 1 (Homo sapiens) (UniProt Q05397); test: Inhibition of FAK (unknown origin) at 100 nM
# [5] = target: Ephrin type-B receptor 2 (Homo sapiens) (UniProt P29323); test: Inhibition of EPHB2 (unknown origin) at 100 nM
# [6] = target: Tyrosine-protein kinase Lyn (Homo sapiens) (UniProt P07948); test: Inhibition of LYNB (unknown origin) at 100 nM
# [7] = target: Serine/threonine-protein kinase 4 (Homo sapiens) (UniProt Q13043); test: Inhibition of MST1 (unknown origin) at 100 nM
# [8] = target: Tyrosine-protein kinase Mer (Homo sapiens) (UniProt Q12866); test: Inhibition of MER (unknown origin) at 100 nM
# [9] = target: DNA-dependent protein kinase catalytic subunit (Homo sapiens) (UniProt P78527); test: Inhibition of DNA-PK (unknown origin) at 100 nM
# [10] = target: RAC-beta serine/threonine-protein kinase (Homo sapiens) (UniProt P31751); test: Inhibition of AKT2 (unknown origin) at 100 nM
# Chain of RAC-beta serine/threonine-protein kinase (Homo sapiens) (P31751 whole entry, canonical isoform): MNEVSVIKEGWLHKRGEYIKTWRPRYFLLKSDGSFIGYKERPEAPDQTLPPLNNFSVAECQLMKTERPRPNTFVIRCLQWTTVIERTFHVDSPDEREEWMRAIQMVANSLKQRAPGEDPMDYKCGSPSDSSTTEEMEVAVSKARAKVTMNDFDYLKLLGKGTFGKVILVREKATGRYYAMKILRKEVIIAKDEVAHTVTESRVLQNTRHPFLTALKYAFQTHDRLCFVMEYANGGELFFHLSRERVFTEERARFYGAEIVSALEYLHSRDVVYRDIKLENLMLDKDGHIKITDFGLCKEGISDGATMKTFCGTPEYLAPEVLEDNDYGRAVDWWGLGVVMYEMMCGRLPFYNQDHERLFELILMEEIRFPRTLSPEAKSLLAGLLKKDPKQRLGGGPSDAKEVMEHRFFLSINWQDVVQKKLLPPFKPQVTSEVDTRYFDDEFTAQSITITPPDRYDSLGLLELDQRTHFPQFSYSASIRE
# [11] = target: Casein kinase I isoform gamma-1 (Homo sapiens) (UniProt Q9HCP0); test: Inhibition of CK1gamma1 (unknown origin) at 100 nM
# Chain of Casein kinase I isoform gamma-1 (Homo sapiens) (Q9HCP0 whole entry, looked up, canonical isoform): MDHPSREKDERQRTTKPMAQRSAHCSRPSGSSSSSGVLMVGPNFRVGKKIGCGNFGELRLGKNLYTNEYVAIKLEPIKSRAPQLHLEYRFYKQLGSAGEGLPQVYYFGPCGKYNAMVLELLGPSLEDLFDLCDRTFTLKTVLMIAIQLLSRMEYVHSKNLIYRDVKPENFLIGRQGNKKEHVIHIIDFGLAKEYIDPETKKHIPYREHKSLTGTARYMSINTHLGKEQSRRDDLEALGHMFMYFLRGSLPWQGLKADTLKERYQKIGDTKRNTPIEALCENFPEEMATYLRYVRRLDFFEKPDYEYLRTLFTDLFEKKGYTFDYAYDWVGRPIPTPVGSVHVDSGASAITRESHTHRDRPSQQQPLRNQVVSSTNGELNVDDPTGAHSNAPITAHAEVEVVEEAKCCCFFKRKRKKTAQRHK
# [12] = target: 3-phosphoinositide-dependent protein kinase 1 (Homo sapiens) (UniProt O15530); test: Inhibition of PDK1 (unknown origin) by direct binding assay at 100 nM
# Chain of 3-phosphoinositide-dependent protein kinase 1 (Homo sapiens) (O15530 whole entry): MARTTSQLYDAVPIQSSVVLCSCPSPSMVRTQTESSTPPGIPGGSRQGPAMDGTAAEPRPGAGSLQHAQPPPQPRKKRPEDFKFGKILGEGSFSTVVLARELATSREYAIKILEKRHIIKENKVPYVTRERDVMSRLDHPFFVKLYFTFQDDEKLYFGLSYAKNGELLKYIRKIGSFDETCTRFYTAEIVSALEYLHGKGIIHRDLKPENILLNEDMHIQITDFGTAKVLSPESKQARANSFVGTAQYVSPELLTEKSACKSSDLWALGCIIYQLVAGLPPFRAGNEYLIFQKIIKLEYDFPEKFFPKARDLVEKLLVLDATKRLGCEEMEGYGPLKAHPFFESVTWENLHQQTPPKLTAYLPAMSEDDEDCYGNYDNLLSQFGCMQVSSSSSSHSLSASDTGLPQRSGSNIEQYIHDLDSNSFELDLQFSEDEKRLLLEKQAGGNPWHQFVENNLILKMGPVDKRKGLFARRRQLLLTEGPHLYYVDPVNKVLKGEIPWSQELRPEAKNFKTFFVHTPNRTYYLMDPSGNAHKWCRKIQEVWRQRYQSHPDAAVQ
# [13] = target: Activated CDC42 kinase 1 (Homo sapiens) (UniProt Q07912); test: Inhibition of TNK2 (unknown origin) at 100 nM
# [14] = target: Proto-oncogene tyrosine-protein kinase Src (Homo sapiens) (UniProt P12931); test: Inhibition of SRCN1 (unknown origin) at 100 nM
# Chain of Proto-oncogene tyrosine-protein kinase Src (Homo sapiens) (P12931 whole entry, looked up): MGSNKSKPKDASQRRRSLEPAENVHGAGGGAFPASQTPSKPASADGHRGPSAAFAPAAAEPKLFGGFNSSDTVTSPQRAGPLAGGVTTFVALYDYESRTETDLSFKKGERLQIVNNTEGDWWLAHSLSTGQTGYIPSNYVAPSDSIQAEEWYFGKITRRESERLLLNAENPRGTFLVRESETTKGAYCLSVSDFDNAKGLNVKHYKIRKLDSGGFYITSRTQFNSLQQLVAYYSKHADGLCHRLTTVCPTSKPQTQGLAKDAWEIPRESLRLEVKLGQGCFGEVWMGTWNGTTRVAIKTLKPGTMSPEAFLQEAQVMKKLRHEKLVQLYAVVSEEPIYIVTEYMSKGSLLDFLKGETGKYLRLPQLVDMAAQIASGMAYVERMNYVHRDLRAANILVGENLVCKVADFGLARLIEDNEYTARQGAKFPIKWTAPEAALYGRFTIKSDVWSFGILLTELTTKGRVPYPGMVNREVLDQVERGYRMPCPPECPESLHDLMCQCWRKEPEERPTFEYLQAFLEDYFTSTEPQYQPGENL
# [15] = target: SRSF protein kinase 1 (Homo sapiens) (UniProt Q96SB4); test: Inhibition of SRPK1 (unknown origin) at 100 nM
# Chain of SRSF protein kinase 1 (Homo sapiens) (Q96SB4 whole entry): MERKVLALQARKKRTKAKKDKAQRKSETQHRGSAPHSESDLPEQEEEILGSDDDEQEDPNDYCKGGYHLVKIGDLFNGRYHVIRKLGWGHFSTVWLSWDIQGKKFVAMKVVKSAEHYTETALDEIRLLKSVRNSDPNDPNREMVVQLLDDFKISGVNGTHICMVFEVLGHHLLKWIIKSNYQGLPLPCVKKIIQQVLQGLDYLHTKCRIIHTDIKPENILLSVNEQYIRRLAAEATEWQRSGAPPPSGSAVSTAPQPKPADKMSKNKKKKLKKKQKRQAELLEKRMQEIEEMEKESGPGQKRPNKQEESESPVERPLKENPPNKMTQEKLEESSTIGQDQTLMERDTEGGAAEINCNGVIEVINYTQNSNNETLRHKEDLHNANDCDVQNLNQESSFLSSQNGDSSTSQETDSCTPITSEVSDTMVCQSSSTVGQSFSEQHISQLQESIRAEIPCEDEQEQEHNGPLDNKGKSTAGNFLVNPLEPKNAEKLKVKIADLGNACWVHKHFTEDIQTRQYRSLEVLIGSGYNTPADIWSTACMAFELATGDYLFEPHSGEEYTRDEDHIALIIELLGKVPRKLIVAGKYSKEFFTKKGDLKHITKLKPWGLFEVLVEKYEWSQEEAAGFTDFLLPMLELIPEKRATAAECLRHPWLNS
# [16] = target: Serine/threonine-protein kinase PLK1 (Homo sapiens) (UniProt P53350); test: Inhibition of PLK1 (unknown origin) at 100 nM
# Chain of Serine/threonine-protein kinase PLK1 (Homo sapiens) (P53350 whole entry): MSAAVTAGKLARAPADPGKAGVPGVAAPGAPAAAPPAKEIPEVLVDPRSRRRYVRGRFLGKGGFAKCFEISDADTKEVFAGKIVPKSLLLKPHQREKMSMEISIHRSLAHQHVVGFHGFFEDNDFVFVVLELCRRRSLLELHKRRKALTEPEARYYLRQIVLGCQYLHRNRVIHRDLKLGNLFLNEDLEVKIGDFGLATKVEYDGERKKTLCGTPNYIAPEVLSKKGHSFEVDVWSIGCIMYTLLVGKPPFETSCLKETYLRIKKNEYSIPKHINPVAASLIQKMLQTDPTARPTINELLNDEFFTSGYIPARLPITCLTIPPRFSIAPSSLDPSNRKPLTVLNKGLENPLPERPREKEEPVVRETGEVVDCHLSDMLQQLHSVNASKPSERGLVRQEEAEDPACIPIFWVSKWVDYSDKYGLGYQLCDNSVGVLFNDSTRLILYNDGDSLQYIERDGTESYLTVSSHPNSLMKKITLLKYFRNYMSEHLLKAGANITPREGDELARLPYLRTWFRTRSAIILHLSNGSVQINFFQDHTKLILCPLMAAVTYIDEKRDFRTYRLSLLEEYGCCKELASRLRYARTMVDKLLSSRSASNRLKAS
# [17] = target: Serine/threonine-protein kinase D2 (Homo sapiens) (UniProt Q9BZL6); test: Inhibition of PKD2 (unknown origin) at 100 nM
# [18] = target: Rhodopsin kinase GRK7 (Homo sapiens) (UniProt Q8WTQ7); test: Inhibition of GRK7 (unknown origin) at 100 nM
# [19] = target: Serine/threonine-protein kinase D3 (Homo sapiens) (UniProt O94806); test: Inhibition of PKD3 (unknown origin) at 100 nM
# [20] = target: Mitogen-activated protein kinase kinase kinase 2 (Homo sapiens) (UniProt Q9Y2U5); test: Inhibition of MEKK2 (unknown origin) at 100 nM
# [21] = target: Ephrin type-A receptor 7 (Homo sapiens) (UniProt Q15375); test: Inhibition of EPHA7 (unknown origin) at 100 nM
# [22] = target: Insulin receptor-related protein (Homo sapiens) (UniProt P14616); test: Inhibition of IRR (unknown origin) at 100 nM
# [23] = target: Calcium/calmodulin-dependent protein kinase type II subunit delta (Homo sapiens) (UniProt Q13557); test: Inhibition of CamKIIdelta (unknown origin) at 100 nM
# [24] = target: Casein kinase I isoform gamma-2 (Homo sapiens) (UniProt P78368); test: Inhibition of CK1gamma2 (unknown origin) at 100 nM
# [25] = target: cAMP-dependent protein kinase catalytic subunit PRKX (Homo sapiens) (UniProt P51817); test: Inhibition of PRKX (unknown origin) at 100 nM
# [26] = target: Fibroblast growth factor receptor 2 (Homo sapiens) (UniProt P21802); test: Inhibition of FGFR2 (unknown origin) at 100 nM
# [27] = Oral bioavailability in rat at 5 mg/kg; assay type: ADME, organism-based; conditions: in vivo
# [28] = target: Tyrosine-protein kinase Fgr (Homo sapiens) (UniProt P09769); test: Inhibition of FGR (unknown origin) at 100 nM
# Chain of Tyrosine-protein kinase Fgr (Homo sapiens) (P09769 2-529 limits assumed): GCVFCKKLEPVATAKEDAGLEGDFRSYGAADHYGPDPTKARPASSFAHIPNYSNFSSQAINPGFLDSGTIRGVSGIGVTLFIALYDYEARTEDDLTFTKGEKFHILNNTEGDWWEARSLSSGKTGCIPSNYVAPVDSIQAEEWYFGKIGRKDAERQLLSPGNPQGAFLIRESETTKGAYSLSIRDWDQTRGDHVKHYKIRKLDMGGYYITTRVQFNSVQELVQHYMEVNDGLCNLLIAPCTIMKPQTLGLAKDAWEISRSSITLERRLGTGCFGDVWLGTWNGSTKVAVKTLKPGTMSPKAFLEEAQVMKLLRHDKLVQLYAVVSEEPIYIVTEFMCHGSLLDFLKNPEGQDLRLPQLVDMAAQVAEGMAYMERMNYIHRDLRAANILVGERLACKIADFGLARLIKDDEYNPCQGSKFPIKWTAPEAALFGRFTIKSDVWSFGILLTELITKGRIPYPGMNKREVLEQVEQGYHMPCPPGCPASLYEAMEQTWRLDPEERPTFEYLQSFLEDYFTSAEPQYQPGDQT
# [29] = target: Dual specificity protein kinase TTK (Homo sapiens) (UniProt P33981); test: Inhibition of TTK (unknown origin) at 100 nM
# Chain of Dual specificity protein kinase TTK (Homo sapiens) (P33981 whole entry): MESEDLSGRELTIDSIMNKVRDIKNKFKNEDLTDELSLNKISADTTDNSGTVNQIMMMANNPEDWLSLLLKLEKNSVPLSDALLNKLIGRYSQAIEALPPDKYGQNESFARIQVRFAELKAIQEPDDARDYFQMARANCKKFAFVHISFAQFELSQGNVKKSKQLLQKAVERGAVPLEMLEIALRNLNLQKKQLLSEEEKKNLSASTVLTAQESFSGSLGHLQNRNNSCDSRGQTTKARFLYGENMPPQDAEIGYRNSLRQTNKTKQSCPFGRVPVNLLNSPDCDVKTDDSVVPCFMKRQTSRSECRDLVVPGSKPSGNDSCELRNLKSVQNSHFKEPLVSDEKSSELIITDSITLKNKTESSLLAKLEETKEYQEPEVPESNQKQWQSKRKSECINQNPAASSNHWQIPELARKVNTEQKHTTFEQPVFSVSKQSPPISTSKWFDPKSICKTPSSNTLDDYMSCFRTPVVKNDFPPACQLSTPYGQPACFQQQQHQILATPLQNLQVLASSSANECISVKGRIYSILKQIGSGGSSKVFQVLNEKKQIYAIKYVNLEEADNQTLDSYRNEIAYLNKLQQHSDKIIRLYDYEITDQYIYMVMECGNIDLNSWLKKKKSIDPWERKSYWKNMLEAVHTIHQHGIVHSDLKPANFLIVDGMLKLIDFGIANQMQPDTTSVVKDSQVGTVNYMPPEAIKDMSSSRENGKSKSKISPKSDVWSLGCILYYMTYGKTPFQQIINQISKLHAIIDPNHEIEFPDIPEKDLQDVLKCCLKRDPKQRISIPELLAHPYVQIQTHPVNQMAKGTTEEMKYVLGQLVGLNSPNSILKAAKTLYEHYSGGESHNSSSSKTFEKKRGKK
# [30] = target: Tyrosine-protein kinase Fer (Homo sapiens) (UniProt P16591); test: Inhibition of FER (unknown origin) at 100 nM
# [31] = target: Phosphatidylinositol 3-kinase catalytic subunit type 3 (Homo sapiens) (UniProt Q8NEB9); test: Inhibition of PI3KC3/hVPS34 (unknown origin) at 100 nM
# [32] = target: Mitogen-activated protein kinase 12 (Homo sapiens) (UniProt P53778); test: Inhibition of p38gamma(unknown origin) at 100 nM
# [33] = target: Serine/threonine-protein kinase BRSK1 (Homo sapiens) (UniProt Q8TDC3); test: Inhibition of BRSK1 (unknown origin) at 100 nM
# [34] = target: MAP kinase-activated protein kinase 3 (Homo sapiens) (UniProt Q16644); test: Inhibition of MAPKAPK3 (unknown origin) at 100 nM
# Chain of MAP kinase-activated protein kinase 3 (Homo sapiens) (Q16644 whole entry, looked up): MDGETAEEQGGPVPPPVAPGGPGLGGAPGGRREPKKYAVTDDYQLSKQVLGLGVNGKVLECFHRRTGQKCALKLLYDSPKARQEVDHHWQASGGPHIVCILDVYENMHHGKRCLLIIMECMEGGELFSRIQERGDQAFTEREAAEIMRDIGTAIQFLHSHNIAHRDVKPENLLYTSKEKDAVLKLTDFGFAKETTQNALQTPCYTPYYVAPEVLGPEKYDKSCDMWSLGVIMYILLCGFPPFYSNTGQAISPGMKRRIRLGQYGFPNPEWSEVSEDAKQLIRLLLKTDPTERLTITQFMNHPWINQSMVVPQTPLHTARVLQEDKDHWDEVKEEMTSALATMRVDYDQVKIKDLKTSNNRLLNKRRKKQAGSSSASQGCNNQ
# [35] = target: Mitogen-activated protein kinase kinase kinase 11 (Homo sapiens) (UniProt Q16584); test: Inhibition of MLK3 (unknown origin) at 100 nM
# [36] = target: Serine/threonine-protein kinase DCLK2 (Homo sapiens) (UniProt Q8N568); test: Inhibition of DCAMKL2 (unknown origin) at 100 nM
# [37] = target: Beta-adrenergic receptor kinase 1 (Homo sapiens) (UniProt P25098); test: Inhibition of GRK2 (unknown origin) at 100 nM
# [38] = target: G protein-coupled receptor kinase 5 (Homo sapiens) (UniProt P34947); test: Inhibition of GRK5 (unknown origin) at 100 nM
# [39] = target: Mitogen-activated protein kinase kinase kinase kinase 5 (Homo sapiens) (UniProt Q9Y4K4); test: Inhibition of KHS1 (unknown origin) at 100 nM
# [40] = target: Testis-specific serine/threonine-protein kinase 1 (Homo sapiens) (UniProt Q9BXA7); test: Inhibition of TSSK1 (unknown origin) at 100 nM
# [41] = target: Serine/threonine-protein kinase PAK 2 (Homo sapiens) (UniProt Q13177); test: Inhibition of PAK2 (unknown origin) at 100 nM
# [42] = target: Calcium/calmodulin-dependent protein kinase type IV (Homo sapiens) (UniProt Q16566); test: Inhibition of CamKIV (unknown origin) at 100 nM
# [43] = target: Serine/threonine-protein kinase PAK 3 (Homo sapiens) (UniProt O75914); test: Inhibition of PAK3 (unknown origin) at 100 nM
smiles,measurement,setting,value
CC1(C)OCc2c(Nc3n[nH]c4ccccc34)nc(-c3cn[nH]c3)nc21,inhibition,[1],-1.8%
same,inhibition,[2],17.9%
same,inhibition,[3],59.3%
same,inhibition,[4],7.2%
same,inhibition,[5],15.3%
same,inhibition,[6],89.4%
same,inhibition,[7],13.1%
same,inhibition,[8],6.3%
same,inhibition,[9],7.5%
same,inhibition,[10],8.8%
same,inhibition,[11],1.3%
same,inhibition,[12],-1.4%
same,inhibition,[13],7.8%
same,inhibition,[14],47.2%
same,inhibition,[15],3.9%
same,inhibition,[16],4.9%
same,inhibition,[17],7.8%
same,inhibition,[18],0.8%
same,inhibition,[19],19%
same,inhibition,[20],43.6%
same,inhibition,[21],35.9%
same,inhibition,[22],12%
same,inhibition,[23],-4.2%
same,inhibition,[24],3.5%
same,inhibition,[25],8.4%
same,inhibition,[26],54%
same,bioavailability,[27],13%
same,inhibition,[28],83.7%
same,inhibition,[29],4.3%
same,inhibition,[30],6.9%
same,inhibition,[31],7.4%
same,inhibition,[32],10.3%
same,inhibition,[33],1.7%
same,inhibition,[34],5.4%
same,inhibition,[35],6.7%
same,inhibition,[36],1.8%
same,inhibition,[37],-0.6%
same,inhibition,[38],-1.4%
same,inhibition,[39],12.7%
same,inhibition,[40],-0.5%
same,inhibition,[41],0.3%
same,inhibition,[42],15%
same,inhibition,[43],8.9%
